Measurements as given in article PMC9000575, “Solution Equilibrium Studies on Salicylidene Aminoguanidine Schiff Base Metal Complexes: Impact of the Hybridization with L-Proline on Stability, Redox Activity and Cytotoxicity” (Molecules, 2022).
Converted amounts (≈) assume the structure as drawn. Blank lines part the entries; values can stand above or below the compound they belong to.

Columns and labels:
Format in all cases: physicochemical
[1] = thermodynamic solubility at pH 7.4; details: 10 mM HEPES buffer, aqueous buffer, thermodynamic from solid, pH 7.4, T = 25 °C, read-out: thermodynamic solubility at pH 7.4 (S7.4)
[2] = proton dissociation constants by pH-potentiometry; details: for pK1 (H3L2+) / pK2 (H2L+) / pK3 (HL): Pro-SISC-Me; for pK1 (H3L2+) / pK2 (H2L+) / pK3 (HL) / pK1 (H2L+) / pK2 (HL): pH-pot.; for fraction present as H2L+ at pH 7.4 / fraction present as HL at pH 7.4: based on the pKa values; for fraction present as HL at pH 7.4: HL neutral (zwitter ionic for Pro-SISC-Me); for pK1 (H2L+) / pK2 (HL): SISC
Protocol: (§1) The pH-potentiometric measurements for the determination of the proton dissociation constants of the ligands and the overall stability constants of the metal complexes were carried out at 25.0 ± 0.1 °C in water or in 30% (v/v) DMSO/H2O as solvent and at an ionic strength of 0.10 M (KCl). The titrations were performed with carbonate-free KOH solution of known concentration (0.10 M). The concentrations of the base and the HCl were determined by pH-potentiometric titrations. An Orion 710A pH-meter equipped with a Metrohm combined electrode (type 6.0234.100), and a Metrohm 665 Dosimat burette were used for the titrations. […] The average water ionization constant pKw was 13.76 ± 0.05 (water) or 14.52 ± 0.05 (30% (v/v) DMSO/H2O). The pH-potentiometric titrations were performed in the pH range 2.0–12.5. The initial volume of the samples was 10.0 mL. The ligand concentration was 2 mM and metal ion-to-ligand ratios of 1:1–1:3 were used. The accepted fitting of the titration curves was always less than 0.01 mL. Argon was always passed over the solutions during the titrations. The exact concentration of the ligand stock solutions together with the proton dissociation constants were determined by pH-potentiometric titrations with the use of the computer program HYPERQUAD [44]. It was also utilized to establish the stoichiometry of the complexes and to calculate the stability constants (β(MpLqHr)). β(MpLqHr) is defined for the general equilibrium pM + qL + rH ⇋ MpLqHr as β(MpLqHr) = [MpLqHr]/[M]^p[L]^q[H]^r, where M denotes the metal ion and L the completely deprotonated ligand. In all calculations exclusively, titration data were used from experiments in which no precipitate was visible in the reaction mixture.

[3] = proton dissociation constants by UV-vis spectrophotometric titration; details: for pK2 (H2L+) / pK3 (HL): Pro-SISC-Me; for pK1 (H2L+) / pK2 (HL): SISC
Protocol: An Agilent Cary 8454 diode array spectrophotometer (Agilent Technologies, Santa Clara, CA, USA) was used to record the UV-vis spectra at an interval of 200–800 nm. The path length was 1 or 2 cm. Spectrophotometric titrations were performed in water or in 30% (v/v) DMSO/H2O on samples containing the ligands at 50 μM–1 mM concentration, in the pH range from 1.0 to 12.5 in the absence or in the presence of 1 or 0.5 or 0.33 equiv. metal ions. Ka values of the ligands and the UV-vis spectra of the individual species were calculated by the computer program PSEQUAD [45].

[4] = n-octanol/water distribution coefficient, shake-flask; details: n-octanol/buffered aqueous solution, pH 7.4; n-octanol/H2O, pH 7.40, 25 °C, 0.10 M KCl; read-out: logD7.4
Protocol: Distribution coefficients (D7.4) values were determined by the traditional shake-flask method in n-octanol/buffered aqueous solution at pH 7.40 (20 mM HEPES, 0.10 M KCl) at 25.0 ± 0.2 °C as described previously.

[5] = stability constants of Cu(II) complexes by pH-potentiometry; details: for logβ [CuLH−1] / logβ [CuLH−2]− / logβ [CuL]+: 25 °C, I = 0.10 M (KCl); for pCu(II) (−log[Cu(II)]): calculated at pH 7.4, cCu(II) = 1 μM, cligand = 10 μM
Protocol: Interaction between Pro-SISC-Me and Cu(II) ions could be studied by pH-potentiometry in water due to the adequate solubility of the species (Figure S7b), and the calculated overall stability constants are collected in Table 2. Based on the titration data, formation of only mono-ligand complexes ([CuL]^+, [CuLH−1], [CuLH−2]^−) was observed even at higher metal-to-ligand ratios. Stability constants for the complexes formed with the more lipophilic SISC were determined in the presence of 30% (v/v) DMSO/H2O (Figure S7a), and for the Cu(II)—Pro-SISC-Me system was studied as well in the same solvent system for comparison (Table 2). […] In the case of SISC, the stability constant could not be obtained for the [CuLH−2]^− species as in its formation pH range (>8) precipitation appeared in the solution. The thiosemicarbazone analogues (STSC and Pro-STSC-Me) also form exclusively mono-ligand complexes ([CuLH]^+, [CuL], [CuLH−1]^−), however, protonated complexes could not be found for SISC and Pro-SISC-Me.
as §1

[6] = stability constants of Fe(III) complexes by pH-potentiometry; details: 30% (v/v) DMSO/H2O; for pFe(III)* (−logΣ[Fe(III)i(OH)j]): calculated at pH 7.4, cFe = 1 μM, cligand = 10 μM
Protocol: as §1

[7] = cyclic voltammetry of the iron complexes; details: for cathodic peak potential of the iron complexes at pH 7.6: pH 7.6, 1:2 metal-to-ligand, E vs. Ag/AgCl/KCl (Figure S13b)
Text: Further differences were observed when the redox behavior of the iron complexes was monitored by cyclic voltammetry. In the case of SISC, only a cathodic peak could be observed in the pH range of the formation of the Fe(III) complexes (not shown), unlike for Pro-SISC-Me (Figure 8b), where quasi-reversible processes could be seen in a wide pH range (3.9–10.8). The cathodic peak measured at pH 7.6 was located at much lower potential than in the case of the SISC complex (−0.59 V vs. −0.38 V, Figure S13b). […] To reveal the coordination mode in the Fe(III)-Pro-SISC-Me complexes, crystallization experiments were performed and single crystals were obtained for the Na[Fe(III)(Pro-SISC-MeH−2)2](H2O)4 complex.
Cyclic voltammograms of the Cu(II) and Fe(III) complexes in 30% (v/v) DMSO/H2O containing 1 mM Cu(NO3)2 or 1 mM or 0.5 mM FeCl3 and 1 mM ligand were recorded at 25.0 ± 0.1 °C. Ionic strength was 0.10 M (TBAN). Measurements were performed on a conventional three-electrode system under nitrogen atmosphere using an Autolab PGSTAT 204 potentiostat/galvanostat monitored by Metrohm’s Nova software (Metrohm Autolab B.V., Utrecht, The Netherlands). Samples were purged with argon for 15 min before recording the cyclic voltammograms. Platinum electrodes were used as the working and auxiliary electrode and Ag/AgCl/3 M KCl as a reference electrode. The electrochemical system was calibrated with an aqueous solution of K3[Fe(CN)6] (E1/2 = +0.386 V vs. NHE).

solubility thermodynamic [1]: ~10 mM (≈ 3190 µg/mL)
pK1 (H3L2+) ([2]; 30% DMSO/H2O): 1.80 ± 0.08
pK2 (H2L+) ([2]; 30% DMSO/H2O): 7.08 ± 0.02
pK3 (HL) ([2]; 30% DMSO/H2O): 9.91 ± 0.02
pK1 (H3L2+) ([2]; H2O, 25 °C, I = 0.10 M (KCl)): 2.52 ± 0.08
pK2 (H2L+) ([2]; H2O, 25 °C, I = 0.10 M (KCl)): 7.25 ± 0.06
pK3 (HL) ([2]; H2O, 25 °C, I = 0.10 M (KCl)): 9.61 ± 0.05
fraction present as H2L+ at pH 7.4 [2]: 33%
fraction present as HL at pH 7.4 [2]: 67%
pK2 (H2L+) ([3]; 30% DMSO/H2O): 7.07 ± 0.03
pK3 (HL) ([3]; 30% DMSO/H2O): 9.84 ± 0.03
pK2 (H2L+) ([3]; H2O): 7.30 ± 0.03
pK3 (HL) ([3]; H2O): 9.67 ± 0.03
logD [4]: -0.88 ± 0.05
logβ [CuLH−1] ([5]; 30% DMSO): 6.57 ± 0.05
logβ [CuLH−2]− ([5]; 30% DMSO): −4.42 ± 0.06
logβ [CuL]+ ([5]; 30% DMSO): 15.08 ± 0.02
logβ [CuLH−1] ([5]; H2O): 6.96 ± 0.03
logβ [CuLH−2]− ([5]; H2O): −3.22 ± 0.04
logβ [CuL]+ ([5]; H2O): 14.99 ± 0.02
fraction of [CuL]+ at pH 7.4 ([5]; based on the stability constants): 100%
pCu(II) (−log[Cu(II)]) ([5]; 30% DMSO): 13.39
pCu(II) (−log[Cu(II)]) ([5]; H2O): 13.59
logβ [Fe(III)L2H−1] ([6]; 25 °C, I = 0.10 M (KCl)): 18.40 ± 0.07
logβ [Fe(III)L2H−2]− ([6]; 25 °C, I = 0.10 M (KCl)): 8.64 ± 0.08
logβ [Fe(III)L2]+ ([6]; 25 °C, I = 0.10 M (KCl)): 27.63 ± 0.05
logβ [Fe(III)L]2+ ([6]; 25 °C, I = 0.10 M (KCl)): 15.25 ± 0.04
pFe(III)* (−logΣ[Fe(III)i(OH)j]) [6]: 10.0
E1/2 of the Fe(III)/Fe(II) redox couple of the iron complexes ([7]; 30% (v/v) DMSO/H2O, 1:2 metal-to-ligand ratio): −0.32 V vs. NHE
cathodic peak potential of the iron complexes at pH 7.6 ([7]; 30% (v/v) DMSO/H2O): −0.59 V
SMILES: Cc1cc(C=NNC(=N)N)c(O)c(CN2CCCC2C(=O)O)c1 (centres unmarked) [Pro-SISC-Me]

solubility thermodynamic [1]: ~2 mM (≈ 356 µg/mL)
pK1 (H2L+) ([2]; 30% DMSO/H2O): 7.62 ± 0.03
pK2 (HL) ([2]; 30% DMSO/H2O): 10.63 ± 0.02
pK1 (H2L+) ([2]; H2O, 25 °C, I = 0.10 M (KCl)): 7.64 ± 0.09
pK2 (HL) ([2]; H2O, 25 °C, I = 0.10 M (KCl)): 9.96 ± 0.09
fraction present as H2L+ at pH 7.4 [2]: 64%
fraction present as HL at pH 7.4 [2]: 36%
pK1 (H2L+) ([3]; 30% DMSO/H2O): 7.56 ± 0.03
pK2 (HL) ([3]; 30% DMSO/H2O): 10.67 ± 0.03
pK1 (H2L+) ([3]; H2O): 7.64 ± 0.03
pK2 (HL) ([3]; H2O): 10.12 ± 0.03
logD [4]: 0.83
logβ [CuLH−1] ([5]; 30% DMSO): 6.28 ± 0.07
logβ [CuL]+ ([5]; 30% DMSO): 14.74 ± 0.02
pCu(II) (−log[Cu(II)]) ([5]; 30% DMSO): 12.08
logβ [Fe(III)L2]+ ([6]; 25 °C, I = 0.10 M (KCl)): 27.46 ± 0.05
logβ [Fe(III)L]2+ ([6]; 25 °C, I = 0.10 M (KCl)): 14.96 ± 0.05
pFe(III)* (−logΣ[Fe(III)i(OH)j]) [6]: 7.9
cathodic peak potential of the iron complex (only a cathodic peak) ([7]; [Fe(III)L2]+ complex): −0.17 V vs. NHE
cathodic peak potential of the iron complexes at pH 7.6 ([7]; 30% (v/v) DMSO/H2O): −0.38 V
SMILES: N=C(N)NN=Cc1ccccc1O [SISC, 2-(2-hydroxybenzylidene)hydrazinecarboximidamide]
